Where “and” joins values, the source holds several entries; their conditions need not be identical. Equal entries are not always repeated. Where two headings read alike, the source gives them in different places.
Key:
delta opioid receptor [1] = biological target: T1, delta opioid receptor (Rattus norvegicus, UniProt P33533); assay: Rat brain delta opioid receptor binding assay; conditions: rat forebrain
T1 construct: the forebrains were homogenized in Tris buffer in a Teflon®-glass homogenizer; from tissue; host or cells: forebrain of male Wistar rats, particulate (membrane) preparation

mu opioid receptor = biological target: T2, mu opioid receptor (Rattus norvegicus, UniProt P33535); assay: Rat brain mu opioid receptor binding assay; conditions: rat forebrain, [3H]DAMGO ligand
T2 construct: the forebrains were homogenized in Tris buffer in a Teflon®-glass homogenizer; from tissue; host or cells: forebrain of male Wistar rats, particulate (membrane) preparation

delta opioid receptor [2] = biological target: T3, delta opioid receptor (Mus musculus, UniProt P32300); assay: [35S]GTPγS binding assay in NG108-15 cell membranes (delta opioid functional assay), 200 nM screen; type: biochemical; conditions: for inhibition at 10 µM: read-out: GTPγS δ-opioid receptor % Inh @10 μM; for GTPγS δ-opioid receptor Rel Efficacy: relative efficacy from dose response
T3 construct: NG108-15 cell membranes were purchased from Applied Cell Sciences (Rockville, Md.); host or cells: NG108-15 cell membranes

delta opioid receptor [3] = biological target: T3, delta opioid receptor; assay: NG108-15, 24-well delta opioid receptor binding assay
[4] = δ-binding (Naltrindole ligand) Ki, [3H]naltrindole ligand
[5] = GTPγS δ-opioid receptor EC50 (μM), NG108-15 cell membranes, averages if tested more than once
[6] = [3H]naltrindole ligand, read-out: δ-binding (Naltrindole ligand) Ki
[7] = NG108-15 cell membranes, averages if tested more than once, read-out: GTPγS δ-opioid receptor EC50
[8] = [3H]Naltrindole ligand, NG108-15 cell membranes, read-out: δ-binding NG108 cell membrane Ki

T1 sequence (P33533 whole entry): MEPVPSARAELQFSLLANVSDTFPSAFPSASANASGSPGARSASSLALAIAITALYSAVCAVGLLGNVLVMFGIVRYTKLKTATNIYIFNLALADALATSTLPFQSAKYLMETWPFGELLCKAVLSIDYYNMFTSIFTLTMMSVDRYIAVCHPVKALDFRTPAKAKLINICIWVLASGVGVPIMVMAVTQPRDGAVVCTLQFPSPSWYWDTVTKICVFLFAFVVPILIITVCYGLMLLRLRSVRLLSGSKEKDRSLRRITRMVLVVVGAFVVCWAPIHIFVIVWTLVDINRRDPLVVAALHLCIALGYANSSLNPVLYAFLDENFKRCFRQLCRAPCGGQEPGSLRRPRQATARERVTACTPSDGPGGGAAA
T3 sequence (P32300 whole entry): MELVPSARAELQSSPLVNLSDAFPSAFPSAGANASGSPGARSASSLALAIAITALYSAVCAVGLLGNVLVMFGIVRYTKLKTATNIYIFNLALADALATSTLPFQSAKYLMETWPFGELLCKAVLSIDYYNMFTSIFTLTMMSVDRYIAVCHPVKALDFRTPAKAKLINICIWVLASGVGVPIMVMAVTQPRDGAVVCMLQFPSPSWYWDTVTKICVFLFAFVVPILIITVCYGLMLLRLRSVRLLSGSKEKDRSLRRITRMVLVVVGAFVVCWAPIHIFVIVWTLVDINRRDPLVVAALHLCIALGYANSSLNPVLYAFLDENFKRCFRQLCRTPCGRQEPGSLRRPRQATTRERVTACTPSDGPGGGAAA
T2 sequence (P33535 whole entry): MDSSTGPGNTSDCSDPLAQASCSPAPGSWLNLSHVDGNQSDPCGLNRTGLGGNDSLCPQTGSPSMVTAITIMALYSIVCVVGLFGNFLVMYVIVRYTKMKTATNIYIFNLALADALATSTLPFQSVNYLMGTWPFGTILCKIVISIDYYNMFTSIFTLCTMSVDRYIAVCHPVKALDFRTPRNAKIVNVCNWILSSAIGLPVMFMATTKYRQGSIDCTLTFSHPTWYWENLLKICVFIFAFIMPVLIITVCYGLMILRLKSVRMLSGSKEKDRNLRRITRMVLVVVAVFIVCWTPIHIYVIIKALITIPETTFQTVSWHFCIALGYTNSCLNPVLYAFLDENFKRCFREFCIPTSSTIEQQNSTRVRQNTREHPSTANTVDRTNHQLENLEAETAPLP

Row | Compound | Ki (delta opioid receptor [1]; [4]) | GTPγS δ-opioid receptor Rel Efficacy (delta opioid receptor [2]; NG108-15 cell membranes) | Ki (mu opioid receptor; read-out: μ-binding Ki) | EC50 (delta opioid receptor [2]; [7]) | also measured
1 | COc1ccc(Oc2nc(-c3ccccc3)ncc2NC[C@@H]2CCCN2)cc1 [Cpd 2] | 33 nM | 0.733 | – | – | Ki (delta opioid receptor [1]; δ-binding (DPDPE ligand) Ki, [3H]DPDPE ligand): 20 nM; Ki (mu opioid receptor; μ-binding Ki): 3140 nM and 3390 nM; EC50 (delta opioid receptor [2]; [5]): 0.43 µM and 0.069 µM; inhibition at 10 µM (delta opioid receptor [2]): 5.79%
2 | COc1ccc(Oc2nc(-c3cccc4ccccc34)ncc2NC[C@@H]2CCCN2)cc1 [Cpd 5] | – | 0.803 | > 10000 nM | 0.164 µM | Ki (delta opioid receptor [1]; [6]): 157 nM; inhibition at 10 µM (delta opioid receptor [2]): 18.1%
3 | COc1ccc(Oc2nc(-c3ccncc3)ncc2NC[C@@H]2CCCN2)cc1 [Cpd 7] | – | 0.912 | 2170 nM | 0.436 µM | Ki (delta opioid receptor [1]; [6]): 13 nM; inhibition at 10 µM (delta opioid receptor [2]): 17.1%
4 | COc1ccc(Oc2nc(-c3ccc(F)c(F)c3)ncc2NC[C@@H]2CCCN2)cc1 [Cpd 56] | 15 nM | – | 1940 nM | 0.536 µM | inhibition at 10 µM (delta opioid receptor [2]): 26.3%
5 | COc1ccc(Oc2nc(-c3cnc(OC)nc3OC)ncc2NC[C@@H]2CCCN2)cc1 [Cpd 58] | 4 nM | – | 640 nM | 1.51 µM | inhibition at 10 µM (delta opioid receptor [2]): 12.8%
6 | CCOc1ncc(-c2ncc(NC[C@@H]3CCCN3)c(Oc3ccc(OC)cc3)n2)cn1 [Cpd 60] | 14 nM | 0.926 | – | – | Ki (mu opioid receptor; μ-binding Ki): 1520 nM; EC50 (delta opioid receptor [2]; [5]): 0.089 µM; inhibition at 10 µM (delta opioid receptor [2]): 3.73%
7 | COc1ccc(Oc2nc(-c3ccc4c(c3)CCO4)ncc2NC[C@@H]2CCCN2)cc1 [Cpd 63] | 37 nM | – | 633 nM | 0.693 µM | –
8 | COc1ccc(Oc2nc(-c3ccc(OC)c(F)c3)ncc2NC[C@@H]2CCCN2)cc1 [Cpd 64] | 8 nM | 0.830 | – | – | Ki (mu opioid receptor; μ-binding Ki): 466 nM; EC50 (delta opioid receptor [2]; [5]): 0.088 µM; inhibition at 10 µM (delta opioid receptor [2]): 12%
9 | COc1ccc(Oc2nc(-c3cn[nH]c3)ncc2NC[C@@H]2CCCN2)cc1 [Cpd 65] | – | 0.824 | 555 nM | 0.339 µM | Ki (delta opioid receptor [1]; [6]): 3 nM
10 | COc1ccc(Oc2nc(-c3ccnc(SC)n3)ncc2NC[C@@H]2CCCN2)cc1 [Cpd 66, [4-(4-Methoxy-phenoxy)-2′-methylsulfanyl-[2,4]bipyrimidinyl-5-yl]-pyrrolidin-2-(S)-ylmethyl-amine] | 10 nM | – | 390 nM | 0.568 µM | inhibition at 10 µM (delta opioid receptor [2]): 5.77%
11 | COc1ccc(Oc2nc(-c3cnn(C)c3)ncc2NC[C@@H]2CCCN2)cc1 [Cpd 67] | 1 nM | – | 1560 nM | 0.194 µM | –
12 | COc1ccc(Oc2nc(-c3ccc(N)nc3)ncc2NC[C@@H]2CCCN2)cc1 [Cpd 72] | – | 0.905 | 732 nM | 0.105 µM | Ki (delta opioid receptor [1]; [6]): 2 nM; inhibition at 10 µM (delta opioid receptor [2]): 15.2%
13 | COc1ccc(Oc2nc(-c3ccc(O)nc3)ncc2NC[C@@H]2CCCN2)cc1 [Cpd 74] | 26 nM | – | 1060 nM | 0.856 µM | inhibition at 10 µM (delta opioid receptor [2]): 2.37%
14 | COc1ccc(Oc2nc(-c3ccc4nonc4c3)ncc2NC[C@@H]2CCCN2)cc1 [Cpd 78] | 75 nM | – | 1880 nM | – | –
15 | COc1ccc(Oc2nc(-c3cncnc3)ncc2NC[C@@H]2CC(F)(F)CN2)cc1 [Cpd 79] | 95 nM | – | > 10000 nM | – | –
16 | COc1ccc(Oc2nc(-c3cncnc3)ncc2NC[C@@H]2C[C@@H](F)CN2)cc1 [Cpd 80] | 2 nM | – | 106 nM | 0.113 µM | –
17 | COc1ccc(Oc2nc(-c3cnc(N)nc3)ncc2NC[C@@H]2CCCN2)cc1 [Cpd 81] | – | – | 569 nM | – | Ki (delta opioid receptor [1]; [6]): 355 nM
18 | COc1ccc(Oc2nc(-c3cnc(N(C)C)nc3)ncc2NC[C@@H]2CCCN2)cc1 [Cpd 82] | 28 nM | – | 1050 nM | – | –
19 | COc1ccc(Oc2nc(-c3cnc(N4CCOCC4)nc3)ncc2NC[C@@H]2CCCN2)cc1 [Cpd 83] | 14 nM | – | 673 nM | – | –
20 | COc1ccc(Oc2nc(-c3cnc(N4CCN(C)CC4)nc3)ncc2NC[C@@H]2CCCN2)cc1 [Cpd 84] | – | – | 338 nM | – | Ki (delta opioid receptor [1]; [6]): 16 nM
21 | c1ncc(-c2ncc(NC[C@@H]3CCCN3)c(Oc3ccc4ncsc4c3)n2)cn1 [Cpd 85] | 2 nM | – | > 10000 nM | > 10 µM | –

Row | Compound | Ki (delta opioid receptor [1]; [4]) | GTPγS δ-opioid receptor Rel Efficacy (delta opioid receptor [2]; NG108-15 cell membranes) | Ki (mu opioid receptor; read-out: μ-binding Ki) | EC50 (delta opioid receptor [2]; [7]) | also measured
22 | N#Cc1cncc(-c2ncc(NC[C@@H]3CCCN3)c(Oc3ccc4ncsc4c3)n2)c1 [Cpd 86] | 2 nM | – | 1180 nM | 0.386 µM | –
23 | COc1ccc(Oc2nc(-c3ccc4c(c3)OCO4)ncc2NC[C@@H]2CCCN2)cc1 [Cpd 93] | 8 nM | 1.115 | – | – | Ki (mu opioid receptor; μ-binding Ki): 554 nM; EC50 (delta opioid receptor [2]; [5]): 0.072 µM
24 | COc1cccc(Oc2nc(-c3cncc(C#N)c3)ncc2NC[C@@H]2CCCN2)c1 [Cpd 98] | 3 nM | – | 102 nM | – | –
25 | CCOc1ccc(Oc2nc(-c3cncc(C#N)c3)ncc2NC[C@@H]2CCCN2)cc1 [Cpd 104] | 8 nM | 0.921 | – | – | Ki (mu opioid receptor; μ-binding Ki): 190 nM; EC50 (delta opioid receptor [2]; [5]): 0.018 µM
26 | CCOc1ccc(Oc2nc(-c3cncnc3)ncc2NC[C@@H]2CCCN2)cc1 [Cpd 105] | 3 nM | – | 421 nM | 0.146 µM | –
27 | COc1ccc(Oc2nc(-c3cncnc3)ncc2NC2CCCNC2)cc1 (stereo not shown) [Cpd 109] | 1 nM | 1.102 | – | – | Ki (mu opioid receptor; μ-binding Ki): 522 nM; EC50 (delta opioid receptor [2]; [5]): 0.057 µM
28 | N#Cc1cncc(-c2ncc(NC[C@@H]3CCCN3)c(Oc3ccc(OC(F)F)cc3)n2)c1 [Cpd 110] | 33 nM | 0.986 | – | – | Ki (mu opioid receptor; μ-binding Ki): 1070 nM; EC50 (delta opioid receptor [2]; [5]): 0.081 µM
29 | CCCOc1ccc(Oc2nc(-c3cncc(C#N)c3)ncc2NC[C@@H]2CCCN2)cc1 [Cpd 113] | 45 nM | 1.104 | – | – | Ki (mu opioid receptor; μ-binding Ki): 1430 nM; EC50 (delta opioid receptor [2]; [5]): 0.075 µM
30 | COc1ccc(Oc2nc(-c3cnc(C#N)nc3)ncc2NC[C@@H]2CCCN2)cc1 [Cpd 121] | 20 nM | 1.010 | – | – | Ki (mu opioid receptor; μ-binding Ki): 379 nM; EC50 (delta opioid receptor [2]; [5]): 0.019 µM
31 | FC(F)(F)COc1ccc(Oc2nc(-c3cncnc3)ncc2NC[C@@H]2CCCN2)cc1 [Cpd 123] | – | 1.124 | – | 0.057 µM | Ki (delta opioid receptor [3]; [8]): 0.4 nM; GTPγS δ-RelEfficacy @200 nM (delta opioid receptor [2]; 200 nM test compound, relative to calculated max of SNC80 dose response curve, NG108-15 cell membranes, averages if tested more than once): 0.653
32 | O=C(c1ccc(Oc2nc(-c3cccnc3)ncc2NC[C@@H]2CCCN2)cc1)N1CCCC1 [Cpd 158] | – | – | – | – | Ki (delta opioid receptor [3]; [8]): 1600 nM
33 | O=C(O)c1ccc(Oc2nc(-c3cccnc3)ncc2NC[C@@H]2CCCN2)cc1 [Cpd 159] | – | – | – | – | Ki (delta opioid receptor [3]; [8]): 4450 nM
34 | O=C(c1ccc(Oc2nc(-c3cccnc3)ncc2NC[C@@H]2CCCN2)cc1)N1CCCCC1 [Cpd 160, Piperidin-1-yl-(4-{2-pyridin-3-yl-5-[(pyrrolidin-2-(S)-ylmethyl)-amino]-pyrimidin-4-yloxy}-phenyl)-methanone] | – | – | – | – | Ki (delta opioid receptor [3]; [8]): 338 nM
35 | O=C(c1ccc(Oc2nc(-c3cccnc3)ncc2NC[C@@H]2CCCN2)cc1)N1CCOCC1 [Cpd 161] | – | – | – | – | Ki (delta opioid receptor [3]; [8]): 795 nM
36 | CN1CCN(C(=O)c2ccc(Oc3nc(-c4cccnc4)ncc3NC[C@@H]3CCCN3)cc2)CC1 [Cpd 162] | – | – | – | – | Ki (delta opioid receptor [3]; [8]): 852 nM
37 | O=C(O)c1cccc(Oc2nc(-c3cccnc3)ncc2NC[C@@H]2CCCN2)c1 [Cpd 163] | – | – | – | – | Ki (delta opioid receptor [3]; [8]): 6390 nM
38 | O=C(O)c1cccc(Oc2nc(-c3cncc(F)c3)ncc2NC[C@@H]2CCCN2)c1 [Cpd 164] | – | – | – | – | Ki (delta opioid receptor [3]; [8]): 2280 nM
39 | O=C(O)c1ccc(Oc2nc(-c3cncc(F)c3)ncc2NC[C@@H]2CCCN2)cc1 [Cpd 165] | – | – | – | – | Ki (delta opioid receptor [3]; [8]): 3760 nM
40 | CN1CCN(C(=O)c2cccc(Oc3nc(-c4cccnc4)ncc3NC[C@@H]3CCCN3)c2)CC1 [Cpd 169] | – | – | – | – | Ki (delta opioid receptor [3]; [8]): 33 nM
41 | COc1ccc(Oc2nc(-c3cncnc3)ncc2NC[C@@H](N)CC(C)C)cc1 [Cpd 295] | – | – | – | – | Ki (delta opioid receptor [3]): 64 nM
42 | COc1ccc(Oc2nc(-c3cncc(C#N)c3)ncc2NC[C@H]2CCCC[C@@H]2N)cc1 [Cpd 299] | 23 nM | – | 222 nM | 0.129 µM | –

Reference: patent US8513271B2, “Pyrimidine compounds as delta opioid receptor modulators” (Janssen Pharmaceutica, NV, priority 2009, dated 2013)
